This data set can be described thus: Mean plasma ketamine, HNK and norketamine, all subjects of Examples 7-10. The data set is classed as in vivo, human. Conditions: 100 mg racemic ketamine sublingual, analyte = label. How it is done:
Blood samples were collected every 10 minutes, from 0 minutes (the time of administration) to 90 minutes post-administration. Blood samples at each time point were analysed to determine plasma levels of (2S,6S;2R,6R)-Hydroxynorketamine (HNK).
FIGS. 11-13 illustrate ketamine, HNK, and norketamine levels, respectively, for all subjects of EXAMPLES 7-10, while FIG. 14 illustrates the mean plasma levels of ketamine, HNK, and norketamine for all subjects of EXAMPLES 7-10. Results indicated a mean plasma concentration of ketamine of 104.87 ng/ml at 10 minutes, 230.11 ng/ml at 20 minutes, 267.08 ng/ml at 30 minutes, 271.62 ng/ml at 40 minutes, 288.48 ng/ml at 50 minutes, 272.42 ng/ml at 60 minutes, 263.40 ng/ml at 70 minutes, 227.50 ng/ml at 80 minutes, and 176.91 ng/ml at 90 minutes. Mean HNK was 0 at 10 minutes, 12.22 ng/ml at 20 minutes, 56.73 ng/ml at 30 minutes, 79.10 ng/ml at 40 minutes, 126.20 ng/ml at 50 minutes, 198.87 ng/ml at 60 minutes, 221.08 ng/ml at 70 minutes, 209.14 ng/ml at 80 minutes, and 217.32 ng/ml at 90 minutes. Mean norketamine was 1.92 at 10 minutes, 57.39 ng/ml at 20 minutes, 141.78 ng/ml at 30 minutes, 286.02 ng/ml at 40 minutes, 505.15 ng/ml at 50 minutes, 646.73 ng/ml at 60 minutes, 750.57 ng/ml at 70 minutes, 723.79 ng/ml at 80 minutes, and 653.94 ng/ml at 90 minutes.

The molecule `NC1(c2ccccc2Cl)CCCCC1=O` (racemic) [Norketamine, (R,S)-norketamine] gave a concentration at 10 min (human, plasma, other: sublingual, 10 minutes post-administration) of 0.00192 µg/mL. Besides, where the note is “human, plasma, other: sublingual, 20 minutes post-administration”, the concentration at 20 min worked out at 0.0574 µg/mL. Further, the concentration at 30 min (human, plasma, other: sublingual, 30 minutes post-administration) came to 0.142 µg/mL. Where the note is “human, plasma, other: sublingual, 40 minutes post-administration”, the concentration at 40 min amounted to 0.286 µg/mL. The molecule further returned a concentration at 50 min (human, plasma, other: sublingual, 50 minutes post-administration) of 0.505 µg/mL. Where the note is “human, plasma, other: sublingual, 60 minutes post-administration”, this molecule yielded a concentration at 60 min of 0.647 µg/mL. For the setting “human, plasma, other: sublingual, 70 minutes post-administration”, this molecule registered a concentration at 70 min of 0.751 µg/mL. The molecule further came in with a concentration at 80 min (human, plasma, other: sublingual, 80 minutes post-administration) of 0.724 µg/mL. The same molecule returned a concentration at 90 min (human, plasma, other: sublingual, 90 minutes post-administration) of 0.654 µg/mL.

Regarding `N[C@@]1(c2ccccc2Cl)CCC[C@@H](O)C1=O` [HNK, (2S,6S;2R,6R)-hydroxynorketamine], the mean plasma concentration by setting is: (10 minutes post-administration) 0 µg/mL; (20 minutes post-administration) 0.01222 µg/mL; (30 minutes post-administration) 0.05673 µg/mL; (40 minutes post-administration) 0.0791 µg/mL; (50 minutes post-administration) 0.1262 µg/mL; (60 minutes post-administration) 0.19887 µg/mL. The molecule further displayed a mean plasma concentration (70 minutes post-administration) of 0.22108 µg/mL, a mean plasma concentration (80 minutes post-administration) of 0.20914 µg/mL and a mean plasma concentration (90 minutes post-administration) of 0.21732 µg/mL.
